Source: the supplement of paper PMC11061612

Assays:
Assay in all cases: combination Emax (second highest fraction inhibited in the dose matrix, 72 h); higher = more inhibition; extreme values may be limits of the assay
[1] = system: NOS-1 (Osteosarcoma)
In short: (§1)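 After 24 hours at 37°C and 5% CO2 in 1536-well plates, cells in DMEM/F12 or RPMI plus 10% FBS received two-drug dose matrices for 72 hours. Viability came from CellTiter-Glo 2.0 luminescence and was scaled as inhibition, anchored at 0 by vehicle wells and at 1 by blank wells. Combination Emax is taken as the second-highest inhibition in the matrix, and Bliss excess as the observed combination effect less EA + EB − EA·EB, with EA and EB the single-agent effects.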

[2] = system: ME-1 (Acute Myeloid Leukemia)
In short: as §1

[3] = system: DoTc2-4510 (Cervical Carcinoma)
In short: as §1

[4] = system: LU-135 (Small Cell Lung Carcinoma)
In short: as §1

[5] = system: KURAMOCHI (Ovarian Carcinoma)
In short: as §1

[6] = system: B-CPAP (Thyroid Gland Carcinoma)
In short: as §1

[7] = system: Ramos-2G6-4C10 (Burkitt's Lymphoma)
In short: as §1

[8] = system: HCC1806 (Breast Carcinoma)
In short: as §1

[9] = system: KELLY (Neuroblastoma)
In short: as §1

[10] = system: Calu-3 (Lung Adenocarcinoma)
In short: as §1

[11] = system: LS-180 (Colorectal Carcinoma)
In short: as §1

[12] = system: SK-ES-1 (Ewing's Sarcoma)
In short: as §1

[13] = system: OVCA420 (Ovarian Carcinoma)
In short: as §1

[14] = system: LNCaP-Clone-FGC (Prostate Carcinoma)
In short: as §1

[15] = system: KYSE-520 (Esophageal Squamous Cell Carcinoma)
In short: as §1

[16] = system: CAL-148 (Breast Carcinoma)
In short: as §1

[17] = system: RO82-W-1 (Thyroid Gland Carcinoma)
In short: as §1

[18] = system: HOS (Osteosarcoma)
In short: as §1

[19] = system: NB10 (Neuroblastoma)
In short: as §1

[20] = system: COLO-205 (Colorectal Carcinoma)
In short: as §1

SMILES	combination Emax [1]	combination Emax [2]	combination Emax [3]	combination Emax [4]	combination Emax [5]	combination Emax [6]	combination Emax [7]	combination Emax [8]	combination Emax [9]	combination Emax [10]	combination Emax [11]	combination Emax [12]	combination Emax [13]	combination Emax [14]	combination Emax [15]	combination Emax [16]	combination Emax [17]	combination Emax [18]	combination Emax [19]	combination Emax [20]
CC(=O)c1c(C)c2cnc(Nc3ccc(N4CCNCC4)cn3)nc2n(C2CCCC2)c1=O [Palbociclib] + CC1(C)CCC(CN2CCN(c3ccc(C(=O)NS(=O)(=O)c4ccc(NCC5CCOCC5)c([N+](=O)[O-])c4)c(Oc4cnc5[nH]ccc5c4)c3)CC2)=C(c2ccc(Cl)cc2)C1 [Venetoclax] (first compound max 10 µM, 7x7, partner max 1 µM)	0.693	1	0.0297	0.445	0.0917	0.237	0.355	0.268	0.52	0.0931	0.61	0.749	0.0625	0.405	0.114	0.161	0.174	0.258	0.293	0.492
COc1nnc2ccc(N3CCC(c4ccc(OCCN5CCN(C)C(=O)[C@H]5C)cc4)CC3)nn12 [AZD5153] + CCN(CCO)CCCOc1ccc2c(Nc3cc(CC(=O)Nc4cccc(F)c4)[nH]n3)ncnc2c1 [AZD2811] (first compound max 1 µM, 7x7, partner max 1 µM)	0.765	0.434	0.381	1	0.738	0.645	0.666	0.676	0.724	0.635	0.617	0.941	0.773	0.743	0.605	0.927	0.402	0.486	0.571	0.869
CN(CCO)CC[C@H](CSc1ccccc1)Nc1ccc(S(=O)(=O)NC(=O)c2ccc(N3CCC([C@@H](O)c4ccccc4-c4ccc(Cl)cc4)CC3)cc2)cc1S(=O)(=O)C(F)(F)F [AZD4320] + Cn1cnc2c(F)c(Nc3ccc(Br)cc3Cl)c(C(=O)NOCCO)cc21 [Selumetinib] (first compound max 1 µM, 7x7, partner max 3 µM)	0.69	1	0.906	1	0.584	0.741	0.472	0.795	0.737	0.245	0.691	0.983	0.451	0.414	0.401	0.996	0.538	0.368	0.887	1
CN(CCO)CC[C@H](CSc1ccccc1)Nc1ccc(S(=O)(=O)NC(=O)c2ccc(N3CCC([C@@H](O)c4ccccc4-c4ccc(Cl)cc4)CC3)cc2)cc1S(=O)(=O)C(F)(F)F [AZD4320] + C=CCn1c(=O)c2cnc(Nc3ccc(N4CCN(C)CC4)cc3)nc2n1-c1cccc(C(C)(C)O)n1 [AZD1775] (first compound max 1 µM, partner max 1 µM)	0.992	1	0.884	1	0.807	0.632	1	0.972	1	0.182	0.422	1	0.37	0.773	0.552	0.994	0.618	0.379	0.493	0.902
CN(CCO)CC[C@H](CSc1ccccc1)Nc1ccc(S(=O)(=O)NC(=O)c2ccc(N3CCC([C@@H](O)c4ccccc4-c4ccc(Cl)cc4)CC3)cc2)cc1S(=O)(=O)C(F)(F)F [AZD4320] + C[C@@H](Nc1cc(F)cc(F)c1)c1cc(C(=O)N(C)C)cc2c(=O)cc(N3CCOCC3)oc12 [AZD8186] (first compound max 1 µM, 7x7, partner max 3 µM)	0.748	1	0.911	1	0.548	0.612	0.685	0.696	0.7	0.242	0.504	0.987	0.261	0.912	0.34	0.996	0.521	0.37	0.78	0.776
CC(=O)c1c(C)c2cnc(Nc3ccc(N4CCNCC4)cn3)nc2n(C2CCCC2)c1=O [Palbociclib] + Cn1cnc2c(F)c(Nc3ccc(Br)cc3Cl)c(C(=O)NOCCO)cc21 [Selumetinib] (first compound max 10 µM, 7x7, partner max 10 µM)	0.826	0.428	0.117	0.352	0.227	0.356	0.336	0.414	0.626	0.149	0.759	0.622	0.51	0.451	0.457	0.303	0.178	0.362	0.579	0.788
Cc1nc(Nc2ncc(C(=O)Nc3c(C)cccc3Cl)s2)cc(N2CCN(CCO)CC2)n1 [Dasatinib] + CC(=O)Nc1cccc(-n2c(=O)n(C3CC3)c(=O)c3c(Nc4ccc(I)cc4F)n(C)c(=O)c(C)c32)c1 [Trametinib] (first compound max 2 µM, 7x7, partner max 1 µM)	0.921	0.375	0.469	0.0891	0.937	0.79	0.238	0.624	0.556	0.619	0.747	0.24	0.903	0.15	0.784	0.254	0.436	0.397	0.658	0.728
Cc1cc2ncnn2cc1Nc1ncc2c(n1)n(C1CCOCC1)c(=O)n2C [AZD7648] + C[C@@H]1COCCN1C2=NC(=NC(=C2)C3(CC3)[S@](=N)(=O)C)C4=C5C=CNC5=NC=C4 [AZD6738] (first compound max 10 µM, 7x7, partner max 10 µM)	0.351	0.378	0.746	0.552	0.567	0.439	0.944	0.928	0.955	0.291	0.754	0.816	0.509	0.703	0.538	0.828	0.478	0.691	0.801	0.266
CCc1c2c(nc3ccc(O)cc13)-c1cc3c(c(=O)n1C2)COC(=O)[C@]3(O)CC [SN-38] + CN(C)CCCOc1ccc(-c2ccc3ncc4c(c3c2)n(C2CCOCC2)c(=O)n4C)cn1 [AZD0156] (first compound max 0.3 µM, 7x7, partner max 1 µM)	0.0879	0.571	0.972	0.728	0.659	0.867	0.98	0.91	0.869	0.319	0.713	1	0.171	0.76	0.284	0.912	0.46	0.893	0.829	0.509
CN(C)CCCOc1ccc(-c2ccc3ncc4c(c3c2)n(C2CCOCC2)c(=O)n4C)cn1 [AZD0156] + C[C@@H]1COCCN1C2=NC(=NC(=C2)C3(CC3)[S@](=N)(=O)C)C4=C5C=CNC5=NC=C4 [AZD6738] (first compound max 1 µM, 7x7, partner max 10 µM)	0.255	0.394	0.811	0.599	0.597	0.479	0.981	0.937	0.987	0.297	0.694	0.855	0.545	0.737	0.603	0.791	0.34	0.706	0.87	0.247
CCN(CCO)CCCOc1ccc2c(Nc3cc(CC(=O)Nc4cccc(F)c4)[nH]n3)ncnc2c1 [AZD2811] + O=C(c1cc(Cc2n[nH]c(=O)c3ccccc23)ccc1F)N1CCN(C(=O)C2CC2)CC1 [Olaparib] (first compound max 1 µM, 7x7, partner max 10 µM)	0.22	0.394	0.297	0.88	0.237	0.231	0.295	0.265	0.788	0.153	0.36	0.954	0.137	0.495	0.21	0.966	0.195	0.0874	0.386	0.868
CC1(C)CCC(CN2CCN(c3ccc(C(=O)NS(=O)(=O)c4ccc(NCC5CCOCC5)c([N+](=O)[O-])c4)c(Oc4cnc5[nH]ccc5c4)c3)CC2)=C(c2ccc(Cl)cc2)C1 [Venetoclax] + C[C@@H]1COCCN1C2=NC(=NC(=C2)C3(CC3)[S@](=N)(=O)C)C4=C5C=CNC5=NC=C4 [AZD6738] (first compound max 1 µM, 7x7, partner max 10 µM)	0.67	1	0.603	0.761	0.567	0.631	0.789	0.938	0.998	0.265	0.728	0.914	0.493	0.684	0.575	0.888	0.322	0.642	0.849	0.344
